Assay results as given in patent US20080319020A1, “4-Oxadiazolyl-Piperidine Compounds and Use Thereof” (Purdue Pharma L.P., priority 2005, published 2008).
Read-outs that look alike come from different tables or passages of the source.

Key:
μ opioid receptor [1] = target: T1, μ opioid receptor (Homo sapiens, UniProt P35372); assay: μ-receptor [35S]GTPγS functional assay; type: biochemical; settings: for Emax: maximal effect relative to DAMGO, read-out: μ GTP Emax
Method: [^35S]GTPγS functional assays are conducted using freshly thawed ORL-1 or μ-receptor membranes, as appropriate. Assay reactions are prepared by sequentially adding the following reagents to binding buffer (100 mM NaCl, 10 mM MgCl2, 20 mM HEPES, pH 7.4) on ice (final concentrations indicated): membrane protein (0.066 mg/mL for ORL-1 receptor and 0.026 mg/mL for μ-receptor), saponin ([…]), GDP ([…]) and [^35S]GTPγS (0.20 nM; NEN). Aliquots of the prepared membrane solution (190 μL/well) are transferred to 96-shallow well polypropylene plates containing 10 μL of 20× concentrated stock solutions of the agonist nociceptin prepared in dimethyl sulfoxide (“DMSO”). Plates are incubated for 30 min at room temperature with shaking. Reactions are terminated by rapid filtration onto 96-well Unifilter GF/B filter plates (Packard, Meriden, Conn.) using a 96-well tissue harvester (Brandel, Gaithersburg, Md.) followed by three filtration washes with 200 μL of ice-cold binding buffer (10 mM NaH2PO4, 10 mM Na2HPO4, pH 7.4). Filter plates are subsequently dried at 50° C. for 2-3 h. BetaScint scintillation cocktail (Wallac, Turku, Finland) is added (50 μL/well) and plates are counted using a Packard Top-Count for 1 min/well. Data are analyzed using the sigmoidal dose-response curve fitting functions in GraphPad PRISM, v. 3.0.
μ GTP EC50 is the concentration of a compound providing 50% of the maximal response for the compound at a μ receptor.
μ GTP Emax % is the maximal effect elicited by a compound relative to the effect elicited by [D-Ala2, N-methyl-Phe4, Gly-ol5]-enkephalin (“DAMGO”), a standard μ agonist. Generally, the μ GTP Emax (%) value measures the efficacy of a compound to treat or prevent pain or diarrhea.

[2] = target: T2, human opioid receptor-like (ORL-1) receptor (Homo sapiens, UniProt P41146); assay: ORL-1 receptor radioligand dose-displacement binding assay ([3H]-nociceptin)
T2 construct: host or cells: HEK-293
T2 sequence (P41146 whole entry): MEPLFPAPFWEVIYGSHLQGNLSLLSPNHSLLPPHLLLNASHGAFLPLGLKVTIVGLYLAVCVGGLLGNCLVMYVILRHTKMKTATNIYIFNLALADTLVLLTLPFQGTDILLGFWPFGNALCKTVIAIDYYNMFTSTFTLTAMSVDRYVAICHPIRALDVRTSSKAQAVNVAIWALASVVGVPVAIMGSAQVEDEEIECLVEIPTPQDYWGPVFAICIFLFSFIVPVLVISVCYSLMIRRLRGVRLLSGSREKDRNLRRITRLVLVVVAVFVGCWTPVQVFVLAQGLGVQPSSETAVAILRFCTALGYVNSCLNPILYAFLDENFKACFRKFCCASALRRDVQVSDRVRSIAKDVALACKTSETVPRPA
Method: All reagents are obtained from Sigma (St. Louis, Mo.) unless noted otherwise. Membranes from recombinant HEK-293 cells expressing the human opioid receptor-like (ORL-1) receptor (Perkin Elmer, Boston, Mass.) are prepared by lysing cells in ice-cold hypotonic buffer (2.5 mM MgCl2, 50 mM HEPES, pH 7.4) (10 mL/10 cm dish), followed by homogenization with a tissue grinder/teflon pestle. Membranes are collected by centrifugation at 30,000×g for 15 min at 4° C., and pellets are resuspended in hypotonic buffer to a final concentration of 1-3 mg/mL. Protein concentrations are determined using the BioRad (Hercules, Calif.) protein assay reagent with bovine serum albumen as standard. Aliquots of the ORL-1 receptor membranes are stored at −80° C.
(§1) Radioligand dose-displacement binding assays for ORL-1 and μ receptors use 0.1 nM [^3H]-nociceptin or 0.2 nM [^3H]-diprenorphine (NEN, Boston, Mass.), respectively, with […] membrane protein/well in a final volume of […] binding buffer (10 mM MgCl2, 1 mM EDTA, 5% DMSO, 50 mM HEPES, pH 7.4). Reactions are carried out in the absence or presence of increasing concentrations of unlabeled nociceptin (American Peptide Company, Sunnyvale, Calif.) or naloxone, for ORL-1 and […], respectively. All reactions are conducted in 96-deep well polypropylene plates for 1-2 h at room temperature. Binding reactions are terminated by rapid filtration onto 96-well Unifilter GF/C filter plates (Packard, Meriden, Conn.) presoaked in 0.5% polyethylenimine using a 96-well tissue harvester (Brandel, Gaithersburg, Md.) followed by three filtration washes with 500 μL of ice-cold binding buffer. Filter plates are subsequently dried at 50° C. for 2-3 h. BetaScint scintillation cocktail (Wallac, Turku, Finland) is added (50 μl/well), and plates are counted using a Packard Top-Count for 1 min/well. The data are analyzed using the one-site competition curve fitting functions in GraphPad PRISM v. 3.0 (San Diego, Calif.).

μ opioid receptor [3] = target: T1, μ opioid receptor; assay: μ-opioid receptor radioligand dose-displacement binding assay ([3H]-diprenorphine)
Method: as §1

kappa opioid receptor [4] = target: T3, kappa opioid receptor (Homo sapiens, UniProt P41145); assay: κ opioid receptor binding assay ([3H]-U69,593)
T3 construct: expressed in transfected cells; host or cells: HEK-293
T3 sequence (P41145 whole entry): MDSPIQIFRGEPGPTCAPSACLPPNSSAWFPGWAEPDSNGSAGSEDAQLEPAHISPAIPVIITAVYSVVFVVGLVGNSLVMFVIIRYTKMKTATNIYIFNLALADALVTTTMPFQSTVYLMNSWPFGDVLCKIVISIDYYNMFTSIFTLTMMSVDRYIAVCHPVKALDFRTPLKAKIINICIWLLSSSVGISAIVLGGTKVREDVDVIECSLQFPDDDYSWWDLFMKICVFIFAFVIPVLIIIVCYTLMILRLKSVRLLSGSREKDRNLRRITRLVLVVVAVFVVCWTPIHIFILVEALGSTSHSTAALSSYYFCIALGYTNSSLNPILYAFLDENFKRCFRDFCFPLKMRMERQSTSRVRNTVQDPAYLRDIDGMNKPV
Method: Membranes from recombinant HEK-293 cells expressing the human kappa opioid receptor (kappa) (cloned in house) were prepared by lysing cells in ice cold hypotonic buffer (2.5 mM MgCl2, 50 mM HEPES, pH 7.4) (10 ml/10 cm dish) followed by homogenization with a tissue grinder/teflon pestle. Membranes were collected by centrifugation at 30,000×g for 15 min at 4° C. and pellets resuspended in hypotonic buffer to a final concentration of 1-3 mg/ml. Protein concentrations were determined using the BioRad protein assay reagent with bovine serum albumen as standard. Aliquots of kappa receptor membranes were stored at −80° C.
Radioligand dose displacement assays used 0.4-0.8 nM [^3H]-U69,593 (NEN; 40 Ci/mmole) with 10-20 μg membrane protein (recombinant kappa opioid receptor expressed in HEK 293 cells; in-house prep) in a final volume of 200 μl binding buffer (5% DMSO, 50 mM Trizma base, pH 7.4). Non-specific binding was determined in the presence of 10 μM unlabeled naloxone or U69,593. All reactions were performed in 96-well polypropylene plates for 1 h at room temperature. Binding reactions were determined by rapid filtration onto 96-well Unifilter GF/C filter plates (Packard) presoaked in 0.5% polyethylenimine (Sigma). Harvesting was performed using a 96-well tissue harvester (Packard) followed by five filtration washes with 200 μl ice-cold binding buffer. Filter plates were subsequently dried at 50° C. for 1-2 hours. Fifty μl/well scintillation cocktail (MicroScint; Packard) was added and plates were counted in a Packard Top-Count for 1 min/well.

delta opioid receptor [5] = target: T4, delta opioid receptor (Homo sapiens, UniProt P41143); assay: δ opioid receptor binding assay ([3H]-Naltrindole)
T4 construct: purchased Perkin Elmer; host or cells: CHO-K1
T4 sequence (P41143 whole entry): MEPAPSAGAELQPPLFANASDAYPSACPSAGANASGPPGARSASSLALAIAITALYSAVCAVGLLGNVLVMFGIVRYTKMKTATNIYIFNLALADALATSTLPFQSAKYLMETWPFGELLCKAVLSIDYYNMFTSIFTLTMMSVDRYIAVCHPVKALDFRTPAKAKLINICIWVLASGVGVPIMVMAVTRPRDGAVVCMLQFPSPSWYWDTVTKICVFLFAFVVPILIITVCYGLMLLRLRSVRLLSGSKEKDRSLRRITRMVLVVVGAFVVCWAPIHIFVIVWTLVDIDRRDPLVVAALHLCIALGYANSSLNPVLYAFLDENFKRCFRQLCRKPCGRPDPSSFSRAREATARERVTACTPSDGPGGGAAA
Method: Radioligand dose-displacement assays used 0.2 nM [^3H]-Naltrindole (NEN; 33.0 Ci/mmole) with 10-20 μg membrane protein (recombinant delta opioid receptor expressend in CHO-K1 cells; Perkin Elmer) in a final volume of 500 μl binding buffer (5 mM MgCl2, 5% DMSO, 50 mM Trizma base, pH 7.4). Non-specific binding was determined in the presence of 25 μM unlabeled naloxone. All reactions were performed in 96-deep well polypropylene plates for 1 h at room temperature. Binding reactions were determined by rapid filtration onto 96-well Unifilter GF/C filter plates (Packard) presoaked in 0.5% polyethylenimine (Sigma). Harvesting was performed using a 96-well tissue harvester (Packard) followed by five filtration washes with 500 μl ice-cold binding buffer. Filter plates were subsequently dried at 50° C. for 1-2 hours. Fifty μl/well scintillation cocktail (MicroScint, Packard) was added and plates were counted in a Packard Top-Count for 1 min/well.

kappa opioid receptor [6] = target: T3, kappa opioid receptor; assay: κ opioid receptor functional [35S]GTPγS binding assay; type: biochemical; settings: for Emax: maximal effect relative to U69,593, read-out: κ GTP Emax
Method: κ GTP EC50 is the concentration of a compound providing 50% of the maximal response for the compound at an K receptor.
κ GTP Emax % is the maximal effect elicited by a compound relative to the effect elicited by U69,593.
(§2) The κ and δ opioid receptor functional [^35S]GTPγS binding assays were conducted as follows. Kappa or delta opioid receptor membrane solution was prepared by sequentially adding final concentrations of 0.026 μg/μl membrane protein (kappa: in-house, delta: Perkin Elmer), 10 μg/ml saponin, 3 μM GDP and 0.20 nM [^35S]GTPγS to binding buffer (100 mM NaCl, 10 mM MgCl2, 20 mM HEPES, pH 7.4) on ice. The prepared membrane solution (190 μl/well) was transferred to 96-shallow well polypropylene plates containing 10 μl of 20× concentrated stock solutions of agonist prepared in DMSO. Plates were incubated for 30 min at room temperature with shaking. Reactions were terminated by rapid filtration onto 96-well tissue harvester (Packard) and followed by three filtration washes with 200 μl ice-cold binding buffer (10 mM NaH2PO4), 10 mM Na2HPO4, pH 7.4). Filter plates were subsequently dried at 50° C. for 2-3 hours. Fifty μl/well scintillation cocktail (MicroScint20, Packard) was added and plates were counted in a Packard Top-Count for 1 min/well.

delta opioid receptor [7] = target: T4, delta opioid receptor; assay: δ opioid receptor functional [35S]GTPγS binding assay; type: biochemical; settings: for Emax: maximal effect relative to met-enkephalin, read-out: δ GTP Emax
Method: δ GTP EC50 is the concentration of a compound providing 50% of the maximal response for the compound at an δ receptor.
δ GTP Emax % is the maximal effect elicited by a compound relative to the effect elicited by met-enkephalin.
as §2

ORL-1 receptor = target: T5, ORL-1 receptor (Homo sapiens, UniProt P41146); assay: ORL-1 receptor [35S]GTPγS functional assay; type: biochemical
T5 construct: host or cells: HEK-293
T5 sequence (P41146 whole entry): as the sequence (P41146 whole entry) above
Method: Filter plates are subsequently dried at 50° C. for 2-3 h. […] 3.0.

[8] = Ki for binding to μ-opioid receptors

T1 sequence (P35372 whole entry): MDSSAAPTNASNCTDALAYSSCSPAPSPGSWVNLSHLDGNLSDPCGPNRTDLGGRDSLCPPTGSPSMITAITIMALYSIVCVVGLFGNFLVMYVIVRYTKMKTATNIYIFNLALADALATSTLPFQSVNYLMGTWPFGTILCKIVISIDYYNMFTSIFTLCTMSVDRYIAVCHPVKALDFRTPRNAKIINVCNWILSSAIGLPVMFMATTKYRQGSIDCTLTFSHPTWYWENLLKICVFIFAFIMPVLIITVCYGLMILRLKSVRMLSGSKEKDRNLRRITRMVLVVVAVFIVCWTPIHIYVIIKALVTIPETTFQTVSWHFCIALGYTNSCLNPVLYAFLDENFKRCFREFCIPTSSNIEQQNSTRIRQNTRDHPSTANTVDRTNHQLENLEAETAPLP

Structure (SMILES)	EC50 (μ opioid receptor [1]) [nM]	Emax (μ opioid receptor [1]) [%]	Ki [2] [nM]	Ki (μ opioid receptor [3]; [8]) [nM]	Ki (μ opioid receptor [3]; μ Ki) [nM]	Ki (kappa opioid receptor [4]) [nM]	Ki (delta opioid receptor [5]) [nM]	EC50 (kappa opioid receptor [6]) [nM]	Emax (kappa opioid receptor [6]) [%]	EC50 (delta opioid receptor [7]) [nM]	Emax (delta opioid receptor [7]) [%]	EC50 (ORL-1 receptor) [nM]	Emax (ORL-1 receptor; maximal effect relative to nociceptin, read-out: ORL1 GTP Emax) [%]	EC50 (μ opioid receptor [1]; read-out: μ GTP EC50) [nM]	EC50 (delta opioid receptor [7]; read-out: δ GTP EC50) [nM]	Ki (μ opioid receptor [3]; read-out: Ki for binding to μ-opioid receptors) [nM]	Ki (μ opioid receptor [3]; read-out: μ Ki) [nM]	Ki (kappa opioid receptor [4]; read-out: κ Ki) [nM]	Ki (delta opioid receptor [5]; read-out: δ Ki) [nM]	EC50 (kappa opioid receptor [6]; read-out: κ GTP EC50) [nM]
CN(C)C(=O)C(CCN1CCC(c2ccccc2)(c2noc(CC(N)=O)n2)CC1)(c1ccccc1)c1ccccc1 [AFE]	16.1	116	1840	5.9	5.92	152	3620	1260	44.7	–	–	–	–	–	–	–	–	–	–	–
CCOC(=O)Cc1nc(C2(c3ccccc3)CCN(CCC(C(=O)N(C)C)(c3ccccc3)c3ccccc3)CC2)no1 [AFL]	1.04	117	696	1.1	1.11	32.9	223	1680	52.7	84	114	> 20000	28	–	–	–	–	–	–	–
NC(=O)Cc1nc(C2(c3ccccc3)CCN(CCC(C(=O)N3CCCC3)(c3ccccc3)c3ccccc3)CC2)no1 [AFX]	8.09	90	1290	4.8	4.82	365	2320	3830	41.7	–	–	–	–	–	–	–	–	–	–	–
CCOC(=O)Cc1nc(C2(c3ccccc3)CCN(CCC(C(=O)N3CCCC3)(c3ccccc3)c3ccccc3)CC2)no1 [AGE]	–	103	3850	–	–	–	–	–	56	–	104	–	–	2.03	21.5	1.3	1.29	91.9	341	704
